{
  "source": "patent US10246437B2",
  "about": "“Crystal form of neratinib maleate and preparation method therefor” (CRYSTAL PHARMATECH CO., LTD, priority 2015, dated 2019)",
  "key": {"[1]": {"settings": "as disclosed in CN101918390B; cited from earlier work"}, "[2]": {"assay": "Solubility comparison in pH 1.8 SGF and high purity water, saturated solutions determined by HPLC", "type": "physicochemical", "settings": "for solubility at 1 h / solubility at 4 h / solubility at 24 h: thermodynamic from solid; for Solubility in comparison to maleate Form II in CN101918390B: pH 1.8 SGF and high purity water, after 1, 4 and 24 hours; for Solubility: maleate", "procedure": "Maleate crystalline Form A, Form B of the present invention and maleate Form II in CN101918390B were added in pH 1.8 SGF (simulated gastric fluid), and in high purity water to obtain suspensions. Concentrations in the saturation solutions were determined after 1 hour, 4 hours and 24 hours by HPLC."}, "[3]": {"assay": "Stability comparison: 1:1 mixed suspension of Form C and Form II stirred in solvent, solid tested by XRPD", "type": "physicochemical", "settings": "nitromethane, 24 hours, Form C versus Form II", "procedure": "10.0 mg of maleate crystalline Form C and maleate crystalline Form II in CN101918390B were mixed at a ratio of 1:1 and added into 1.0 mL of solvent to obtain a suspension. The suspension was magnetically stirred at 500 rpm at 25° C. for 24 hours, and centrifuged to give a solid which was tested by XRPD."}, "[4]": {"assay": "Stability assessment on storage, XRPD patterns collected after storage", "type": "physicochemical", "settings": "maleate", "procedure": "Form B in the present invention were stored under 5° C., 25° C./60% relative humidity and 40° C./75% RH for 90 days. XRPD patterns were collected after storage.\nForm C of the present invention was stored under 5° C., 25° C./60% RH and 40° C./75% relative humidity for 330 days. XRPD patterns were collected after storage."}, "[5]": {"assay": "Hygroscopicity by dynamic vapor sorption (DVS)", "type": "physicochemical", "settings": "DVS at 25° C., 80% RH; maleate", "procedure": "Hygroscopicity of 10 mg of Form C of the present invention was tested using dynamic vapor sorption (DVS) at 25° C. […].\nAbout hygroscopicity characterization description and definition of hygroscopicity (Chinese Pharmacopoeia 2010 edition appendix XIXJ Drug hygroscopic test guidelines, test at 25° C.+/−1° C., 80% Relative Humidity) • deliquescent: sufficient water is absorbed to form a liquid; • very hygroscopic: increase in mass is equal to or greater than 15 percent; • hygroscopic: increase in mass is less than 15 percent and equal to or greater than 2 percent; • slightly hygroscopic: increase in mass is less than 2 percent and equal to or greater than 0.2 percent. • no or almost no hygroscopic: increase in mass is less than 0.2%"}},
  "note": "“Also recorded” adds a separate entry of the source. Structures can show the parent of a compound that is named as a salt.",
  "data": [
    {"compound": "CCOc1cc2ncc(C#N)c(Nc3ccc(OCc4ccccn4)c(Cl)c3)c2cc1NC(=O)/C=C/CN(C)C", "note": "[Form I]", "values": [
      {"measurement": "Form conversion by absorbing moisture in the air", "setting": "[1]", "value": "can easily convert to Form II"}
    ]},
    {"compound": "CCOc1cc2ncc(C#N)c(Nc3ccc(OCc4ccccn4)c(Cl)c3)c2cc1NC(=O)/C=C/CN(C)C", "note": "[Form A, (2E)-N-[4-[[3-chloro-4-[(pyridin-2-yl)methoxy]phenyl]amino]-3-cyano-7-ethoxyquinolin-6-yl]-4-(dimethylamino)but-2-enamide maleate]", "values": [
      {"measurement": "solubility at 1 h", "setting": "[2]; pH 1.8, simulated gastric fluid, pH 1.8 SGF, 1 h", "value": "> 8.4", "unit": "mg/mL"},
      {"measurement": "solubility at 4 h", "setting": "[2]; pH 1.8, simulated gastric fluid, pH 1.8 SGF, 4 h", "value": "> 8.4", "unit": "mg/mL"},
      {"measurement": "solubility at 24 h", "setting": "[2]; pH 1.8, simulated gastric fluid, pH 1.8 SGF, 24 h", "value": "> 8.4", "unit": "mg/mL"},
      {"measurement": "Solubility in comparison to maleate Form II in CN101918390B", "setting": "[2]", "value": "higher solubility"},
      {"measurement": "solubility at 1 h", "setting": "[2]; water, H2O (high purity water), 1 h", "value": "> 3.9", "unit": "mg/mL"},
      {"measurement": "solubility at 4 h", "setting": "[2]; water, H2O (high purity water), 4 h", "value": "> 3.9", "unit": "mg/mL"},
      {"measurement": "solubility at 24 h", "setting": "[2]; water, H2O (high purity water), 24 h", "value": "> 3.9", "unit": "mg/mL"}
    ]},
    {"compound": "CCOc1cc2ncc(C#N)c(Nc3ccc(OCc4ccccn4)c(Cl)c3)c2cc1NC(=O)/C=C/CN(C)C", "note": "[Form II, reference compound]", "values": [
      {"measurement": "Stability comparison (form conversion in mixed suspension)", "setting": "[3]", "value": "transferred to crystalline Form C"},
      {"measurement": "solubility at 1 h", "setting": "[2]; simulated gastric fluid (SGF), simulated gastric fluid, pH 1.8 SGF, 1 h", "value": 3.3, "unit": "mg/mL"},
      {"measurement": "solubility at 4 h", "setting": "[2]; simulated gastric fluid (SGF), simulated gastric fluid, pH 1.8 SGF, 4 h", "value": 3.2, "unit": "mg/mL"},
      {"measurement": "solubility at 24 h", "setting": "[2]; simulated gastric fluid (SGF), simulated gastric fluid, pH 1.8 SGF, 24 h", "value": 3.1, "unit": "mg/mL"},
      {"measurement": "solubility at 1 h", "setting": "[2]; H2O (high purity water), 1 h", "value": 1, "unit": "mg/mL"},
      {"measurement": "solubility at 4 h", "setting": "[2]; H2O (high purity water), 4 h", "value": 0.94, "unit": "mg/mL"},
      {"measurement": "solubility at 24 h", "setting": "[2]; H2O (high purity water), 24 h", "value": 0.94, "unit": "mg/mL"}
    ]},
    {"compound": "CCOc1cc2ncc(C#N)c(Nc3ccc(OCc4ccccn4)c(Cl)c3)c2cc1NC(=O)/C=C/CN(C)C", "note": "[Form C, (2E)-N-[4-[[3-chloro-4-[(pyridin-2-yl)methoxy]phenyl]amino]-3-cyano-7-ethoxyquinolin-6-yl]-4-(dimethylamino)but-2-enamide maleate]", "values": [
      {"measurement": "Stability comparison (form conversion in mixed suspension)", "setting": "[3]; maleate", "value": "more stable than maleate crystalline Form II"},
      {"measurement": "Form Change", "setting": "[4]; 5° C., 330 days", "value": "remains unchanged; also recorded: Form C doesn't change"},
      {"measurement": "Form Change", "setting": "[4]; 25° C./60% RH, 330 days", "value": "remains unchanged; also recorded: Form C doesn't change"},
      {"measurement": "Form Change", "setting": "[4]; 40° C./75% RH, 330 days", "value": "remains unchanged; also recorded: Form C doesn't change"},
      {"measurement": "weight increment under 80% Relative Humidity", "setting": "[5]", "value": 1.01, "unit": "%"}
    ]},
    {"compound": "CCOc1cc2ncc(C#N)c(Nc3ccc(OCc4ccccn4)c(Cl)c3)c2cc1NC(=O)/C=C/CN(C)C", "note": "[Form B, (2E)-N-[4-[[3-chloro-4-[(pyridin-2-yl)methoxy]phenyl]amino]-3-cyano-7-ethoxyquinolin-6-yl]-4-(dimethylamino)but-2-enamide maleate]", "values": [
      {"measurement": "Form Change", "setting": "[4]; 5° C., 90 days", "value": "remains unchanged; also recorded: Form B doesn't change"},
      {"measurement": "Form Change", "setting": "[4]; 25° C./60% RH, 90 days", "value": "remains unchanged; also recorded: Form B doesn't change"},
      {"measurement": "Form Change", "setting": "[4]; 40° C./75% RH, 90 days", "value": "remains unchanged; also recorded: Form B doesn't change"},
      {"measurement": "Solubility", "setting": "[2]; H2O (high purity water), 1 h", "value": ">5.4", "unit": "mg/mL"},
      {"measurement": "Solubility", "setting": "[2]; H2O (high purity water), 4 h", "value": ">5.4", "unit": "mg/mL"},
      {"measurement": "Solubility", "setting": "[2]; H2O (high purity water), 24 h", "value": ">5.4", "unit": "mg/mL"},
      {"measurement": "Solubility in comparison to maleate Form II in CN101918390B", "setting": "[2]", "value": "higher solubility"},
      {"measurement": "Solubility", "setting": "[2]; pH 1.8 SGF, 1 h", "value": ">6.7", "unit": "mg/mL"},
      {"measurement": "Solubility", "setting": "[2]; pH 1.8 SGF, 4 h", "value": ">6.7", "unit": "mg/mL"},
      {"measurement": "Solubility", "setting": "[2]; pH 1.8 SGF, 24 h", "value": ">6.7", "unit": "mg/mL"}
    ]}
  ]
}
